Patent US20080089874A1, “DIRECTED DIFFERENTIATION AND MATURATION OF STEM CELL-DERIVED CARDIOMYOCYTES” (The Regents of the University of California, priority 2006, published 2008)
Entries after “also recorded” stand apart in the source; their conditions may differ.

Assays:
[1] = tested on: adult guinea pig LVCMs; assay type: cell-based
[2] = tested on: ACMs; assay type: cell-based, guinea pig

Compound `CC(C)NCC(O)c1ccc(O)c(O)c1` (centres unmarked) [isoproterenol] has an MDP [1] of −55.5±0.7 mV, a TOP [1] of −45.2±0.4 mV and a cycle length [1] of 182 ± 4.1 ms. For the same compound, the “increase in firing rate” value [1] was 27%, the “midpoint (V1/2) of steady-state activation” value [1] was −56.9±1.6 mV and the “phase 4 slope” value [1] was 350±12 mV/s.

For ZD7288, the APD50 [1] was 272 ± 31 ms, the “effect of ZD7288 on induced If and AP firing” value [1] was “blocked; also recorded: silenced” and the “sensitivity of Ad-CGI-HCN1-induced If to HCN blocker” value [1] was “sensitive”. For the same compound, the RMP [2] was −47.6±1.2 mV and the “effect of If suppression on firing” value [2] was “triggered rhythmic firing; also recorded: generated AP”.

`CC(=O)OCC[N+](C)(C)C` [acetylcholine] was tested, and the MDP [1] was −59.0±1.0 mV, the cycle length [1] was 293 ± 16 ms and the “effect on spontaneous APs” value [1] was “no effect”. For the same compound, the “phase 4 slope” value [1] was 241±16 mV/s.

For `NC1=N[C@H](O)[C@H]2[C@H]3O[C@]4(O)O[C@@H]([C@@H](O)[C@@]2(N1)[C@@H]4O)[C@]3(O)CO` [TTX, tetrodotoxin], the AP overshoot [1] was “disappeared”, the “change in phase 4 slope and MDP” value [1] was “no statistical difference” and the cycle length [1] was 328 ± 23 ms. For the same compound, the “maximal upstroke velocity of AP” value [1] was 5.3±0.6 V/s and the “shift in TOP” value [1] was 17 mV.
